Laboratory results from EP2142646B1, “METHOD OF INCREASING OF THE PHOTOSYNTHETIC CARBON DIOXIDE ASSIMILATION YIELD” (priority 2007, dated 2008).
Where “and” joins values, the source holds several entries; their conditions need not be identical. Equal values may be shown once.

Key:
photosynthesis = experiment: Overall activity of photosynthesis in vivo: oxygen production by leaf target (Clark oxygen electrode); details: for Net photosynthetic rate. PN, Average: average of 6 plants; for Net photosynthetic rate. PN: individual plants (Plant nr. 1-6), listed as 20E
Method: Activity of photosynthesis was measured as the production of oxygen by circular target (average 35 mm) cut from the third leaf (counted from the top of the plant) that was placed in the sampling chamber. Assay: oxygen electrode (Clark electrode), sampling chamber LD2 (Hansatech, King's Lynn, Great Britain). Target was incubated in the dark for 5 minutes followed by 9 minutes of illumination; production of oxygen evaluated in the fifth-eighth minute after illumination (in the linear part of the light curve). Illumination was 240 micromol.m^-2.s^-1. Plants were 96 days old when analyzed (96 days after sowing). […]

RuBisCO = target: T1, RuBisCO (Spinacia oleracea, UniProt P00870+P00875); experiment: RuBisCO carboxylase assay (formation of acid-stable 14C product from NaH14CO3); format: biochemical, spinach
T1 construct: from tissue; host or cells: spinach
T1 sequence (P00870 whole entry, other chains not shown): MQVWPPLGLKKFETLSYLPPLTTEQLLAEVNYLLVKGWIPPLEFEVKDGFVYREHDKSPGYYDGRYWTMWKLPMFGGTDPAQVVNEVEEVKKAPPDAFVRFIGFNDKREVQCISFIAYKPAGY
From the text: Relative amount of product detected represents the ratio of the amount of [1-14C]-3-phosphoglycerate produced by the reaction in the presence of 20E to the amount of [1-14C]-3-phosphoglycerate produced by the reaction in no presence of 20E.
The influence of ecdysteroids on RuBisCO assay was based on the protocol described by Pierce et al. (Pierce JW, McCurry SD, Mulligan RM, Tolbert NE. Activation and assay of ribulose-1,5-bisphosphate carboxylase/oxygenase. Methods Enzymol. 1982; 89: 47-55.), where the RuBisCO carboxylase activity is assayed by the rate of formation of acid-stable ^14C product, […], formed from NaH^14CO3. First, the enzyme from spinach was activated at 2 mg.mL^-1 in the activating buffer - 100 mM Bicine pH 8.2, non-labelled 10 mM NaHCO3, 20 mM MgCl2, 0.2 mM EDTA and 1 mM dithiodireitol - for ten minutes at 30 °C. The assay itself was carried out in 20 ml scintillation vials in a solution prepared by mixing 250 µL of 200 mM bicine buffer pH 8.2, 0.4 mM EDTA and 1 mM dithiothreitol, 5 µL of 2 M MgCl2, 150 µL of 20E solution or water (in the case of the control), 20 µL of 250 mM NaH^14CO3 solution and 20 µL of 12.5 mM ribulose-1,5-bisphosphate. 250 mM NaH^14CO3 was prepared by mixing NaH^14CO3 solution (specific activity 2 mCi/ml) with 0.3 M NaHCO3 in the ratio of 1:4. The reaction was initiated by the addition of 100 µL of the activated enzyme and the vial was swirled so that the solution components could mix. The reaction was stopped by the addition of 200 µL of 2 M HCl. To remove excess ^14CO2 and acid, the vials were slowly heated at 95 °C in a hood. After the liquid evaporated and the vials were cooled at laboratory temperature, 5 mL of scintillation solution Rotiszint® eco plus was added. The concentration of 20E was chosen so that its final molar concentration to the molar concentration of the enzyme in the vial was 1:1; the stock solution containing 1 mg of 20E per ml was diluted to the desired concentration just before the experiment.
The same experiment as in Example 1 was carried out but different amounts of 20-hydroxyecdysone were used.
The same experiment as in Example 1 was carried out but different brassinosteroids were used.
The same experiment as in Example 1 was carried out but different ecdysteroids were used.
The same experiment as in Example 1 was carried out but mixed ecdysteroid fractions were used.

[1] = target: small subunits of RuBisCO (Spinacia oleracea, UniProt P00870); experiment: Bioaffinity chromatography of steroid-binding proteins
small subunits of RuBisCO, sequence (P00870 whole entry): as the sequence (P00870 whole entry, other chains not shown) above
From the text: As an example, ecdysteroids can be stated. […] Their function in plants has been unknown yet. We discovered that these compounds influence the carboxylase activity of the enzyme. The active enzyme consists of 8 large subunits and 8 small subunits considered to have regulatory role. We identified the small subunits as proteins able to bind 20-hydroxyecdysone (20HE) in bioaffinity chromatography.

[2] = molar ratio of steroid to enzyme 10:1, relative to reaction without steroid

Which results are given for `CC(C)(O)CC[C@@H](O)[C@](C)(O)[C@H]1CC[C@@]2(O)C3=CC(=O)[C@@H]4C[C@@H](O)[C@@H](O)C[C@]4(C)[C@H]3CC[C@]12C` [20-hydroxyecdysone]?
Net photosynthetic rate. PN, Average (photosynthesis; 1 hour): 21.09 µmol O2.m^-2.s^-1; Net photosynthetic rate. PN (photosynthesis; 1 hour, plants 96 days old, illumination 240 micromol.m^-2.s^-1): 17.02 µmol O2.m^-2.s^-1 and 21.56 µmol O2.m^-2.s^-1 and 22.70 µmol O2.m^-2.s^-1 and 18.40 µmol O2.m^-2.s^-1 and 23.42 µmol O2.m^-2.s^-1 (2×); Net photosynthetic rate. PN, Average (photosynthesis; 2 hours): 22.77 µmol O2.m^-2.s^-1; Net photosynthetic rate. PN (photosynthesis; 2 hours): 18.73 µmol O2.m^-2.s^-1 and 21.56 µmol O2.m^-2.s^-1 and 23.83 µmol O2.m^-2.s^-1 and 23.42 µmol O2.m^-2.s^-1 and 25.10 µmol O2.m^-2.s^-1 and 23.98 µmol O2.m^-2.s^-1; Net photosynthetic rate. PN, Average (photosynthesis; 4 hours): 22.34 µmol O2.m^-2.s^-1; Net photosynthetic rate. PN (photosynthesis; 4 hours): 21.56 µmol O2.m^-2.s^-1 and 22.70 µmol O2.m^-2.s^-1 and 22.31 µmol O2.m^-2.s^-1 (2×) and 21.75 µmol O2.m^-2.s^-1 and 23.42 µmol O2.m^-2.s^-1; Net photosynthetic rate. PN, Average (photosynthesis; 6 hours): 22.72 µmol O2.m^-2.s^-1; Net photosynthetic rate. PN (photosynthesis; 6 hours): 23.83 µmol O2.m^-2.s^-1 and 22.70 µmol O2.m^-2.s^-1 and 22.31 µmol O2.m^-2.s^-1 (2×) and 21.75 µmol O2.m^-2.s^-1 and 23.42 µmol O2.m^-2.s^-1; Relative amount of product detected (RuBisCO; molar ratio of steroid to enzyme 1:1, [1-14C]-3-phosphoglycerate relative to reaction without steroid): 1.05; Relative amount of product detected (RuBisCO; [2]): 1.13; Relative amount of product detected (RuBisCO; molar ratio of steroid to enzyme 20:1, relative to reaction without steroid): 1.12; binding to small subunits of RuBisCO [1]: able to bind

`CC(C)[C@@H](C)[C@@H](O)[C@H](O)[C@@H](C)[C@H]1CC[C@H]2[C@@H]3COC(=O)[C@H]4C[C@H](O)[C@H](O)C[C@]4(C)[C@H]3CC[C@]12C` [24-epibrassinolide] was tested. Which “Relative amount of product detected” value (RuBisCO; [2]) did it give?
The value was 1.10.

Which “Relative amount of product detected” value (RuBisCO; [2]) does the source give for `CC(C)[C@@H](C)[C@@H](O)[C@H](O)[C@@H](C)[C@H]1CC[C@H]2[C@@H]3CC(=O)[C@H]4C[C@H](O)[C@H](O)C[C@]4(C)[C@H]3CC[C@]12C` [24-epicastasterone] here?
Its value is 1.20.

For `CC(C)CC[C@@H](O)[C@](C)(O)[C@H]1CC[C@@]2(O)C3=CC(=O)[C@@H]4C[C@@H](O)[C@@H](O)C[C@]4(C)[C@H]3[C@H](O)C[C@]12C` [Ajugasterone C], which “Relative amount of product detected” value (RuBisCO; [2]) is on record?
Its value is 1.13.

For `CC(C)(O)CC[C@@H](O)[C@](C)(O)[C@H]1CC[C@@]2(O)C3=CC(=O)[C@]4(O)C[C@@H](O)[C@@H](O)C[C@]4(C)[C@H]3CC[C@]12C` [Polypodine B], which “Relative amount of product detected” value (RuBisCO; [2]) is on record?
Its value is 1.11.
